Measurements published in PMC12040169 (PLOS Biology, 2025).

experiment: in vitro; conditions: human, hela cells, % viability

| SMILES | viability at 28.5 h, 10 µM [%] |
| --- | --- |
| O=S(=O)(Nc1ccccc1N1CCCCC1)c1ccc(Cl)cc1 [CBK077063] | 100 |
| CN1C(=O)CC2(C1=O)C(=O)N(Cc1ccccc1)c1ccc(F)cc12 (centres unmarked) [CBK075163] | 90.5 |
| CCCCn1nc(C(=O)N2CCCCC2c2ncc(-c3cccc(F)c3)[nH]2)ccc1=O (centres unmarked) [CBK291149] | 98.6 |
| CC1(C)CC(=O)C2=C(C1)Nc1ncnn1C2c1ccccc1F (centres unmarked) [CBK266446] | 88 |
| Cn1cnc([N+](=O)[O-])c1Oc1cccc(C(F)(F)F)c1 [CBK002790] | 87 |
| FC(F)(F)c1ccnc(OCCc2c[nH]c3ccccc23)n1 [CBK116625] | 80.2 |
| c1ccc(Cn2cc(-c3cncn3CCCN3CCCCC3)cn2)cc1 [CBK281491] | 91.4 |
| Cc1cc(CNC(=O)C(C)Cn2cccn2)on1 (centres unmarked) [CBK281486] | 90.9 |
| Cc1cc(C)n(-c2ccnc(NCCc3cccnc3)n2)n1 [CBK288615] | 94.7 |
| CCOc1ccc(-c2cncc(NCCc3ccncc3)n2)cc1 [CBK065774] | 94.6 |
| O=C(COc1cccnc1)N1CCCC2(CCN(C(=O)Cc3c[nH]c4ccccc34)C2)C1 (centres unmarked) [CBK131608] | 105 |
| COc1ccccc1-c1cnc2[nH]c(=O)n(C3CCCCC3)c2n1 [CBK064203] | 98.7 |
| O=C(CN1C(=O)c2ccncc2C1=O)Nc1ccccn1 [CBK288624] | 89.9 |
| O=c1c([N+](=O)[O-])c(O)c2ccccc2n1-c1ccccc1 [CBK115316] | 97.5 |
| O=C(Cn1ccc(=O)[nH]c1=O)NCc1ccc(OCC(F)(F)F)cc1 [CBK305041] | 109 |
| CNC(=O)CC1CCN(c2cc(C#N)ccc2C(F)(F)F)CC1 [CBK306450] | 112 |
| O=C(CN1CCCN(c2ncc(C(F)(F)F)cc2Cl)CC1)Nc1c(F)cccc1F [CBK074636] | 92.5 |
| CCCC/C=C/c1nccnc1NCc1cccs1 [CBK038090] | 101 |
| CC(C)NC(=O)c1sc2ccccc2c1C1CN(Cc2c[nH]nc2C(C)(C)C)CCO1 (centres unmarked) [CBK285535] | 93.5 |
| COCCCn1c(CCC(=O)O)ccc1-c1ccc(F)cc1 [CBK267886] | 104 |
| Cc1ccc(N(Cc2ccc(C(=O)N(C)Cc3ccccc3)cc2)S(C)(=O)=O)cc1C [CBK263795] | 81.5 |
| CCn1cc(CN(Cc2cccnc2)Cc2ccccc2OC)cn1 [CBK307224] | 84.2 |

| SMILES | viability at 28.5 h, 10 µM [%] |
| --- | --- |
| O=C(O)c1ccc(C(=O)O)c(-c2ccccc2)c1 [CBK261102] | 104 |
| COc1cc(NC(=O)NCC2CCN(CCOc3c(OC)cccc3OC)CC2)cc(OC)c1 [CBK051514] | 89.1 |
| CCc1csc(C2CN3CCCC3CO2)n1 (centres unmarked) [CBK304793] | 89.4 |
| COc1cc(/C=C2/SC(=O)NC2=O)cc(I)c1O [CBK100075] | 92.1 |
| O=C1Nc2ccc(-c3ccc4c(c3)OCO4)cc2C(=O)N2CCN(C(=O)CO)C[C@H]12 [CBK289593] | 85.6 |
| CC(Cc1nc(C2CC2)cs1)n1cc(Cl)cn1 (centres unmarked) [CBK304707] | 90.1 |
| COc1ccc(OC)c(NC(=O)c2c(NCc3ccncc3)sc3c2CCC3)c1 [CBK266007] | 90.1 |
| CCNC(=O)Nc1ncc(-c2cc(OC)c(OC)c(OC)c2)c2cccnc12 [CBK070635] | 83.2 |
| Cc1ccc2c(c1)N(CCO)C(C)(C)CC2C (centres unmarked) [CBK006567] | 92.1 |
| Cc1nn(-c2nc3ccccc3s2)c(O)c1C1OC(=O)c2ccccc21 (centres unmarked) [CBK267220] | 95 |
| COc1c(Br)cc(Br)cc1/C=C1/SC(=N)NC1=O [CBK119298] | 94.4 |
| O=C1c2ccccc2S(=O)(=O)N1CC(O)Cn1c2ccc(Cl)cc2c2cc(Cl)ccc21 (centres unmarked) [CBK262327] | 101 |
| CC(=O)Nc1nc(OCCOc2ccccc2)cnc1-c1cnn(C)c1 [CBK145425] | 92.6 |
| CCCn1c(SCC(=O)Nc2cc(C(C)(C)C)no2)n[nH]c1=O [CBK295648] | 104 |
| O=C1c2ccccc2NC(c2ccccc2F)N1O (centres unmarked) [CBK288377] | 93.4 |
| CCN(CC(C)C#N)C(=O)c1nn(-c2ccccc2)c(C)cc1=O (centres unmarked) [CBK304925] | 109 |
| CCCCN(C=O)c1c(CC)nc2c(OCc3ccccc3C)cccn12 [CBK147639] | 92.2 |
| OCCNc1cncc(-c2ccc3c(c2)OCO3)n1 [CBK065979] | 85.6 |
| CC1CN(Cc2nc3c(c(=O)[nH]c(=O)n3C)n2CCc2ccccc2)CC(C)O1 (centres unmarked) [CBK269876] | 98.1 |
| CCn1c(N2CCC(C(=O)NC3CC3)CC2)nc2ccccc21 [CBK283922] | 92.7 |
| Cc1ccc(OCC(=O)Nc2sc3c(c2C#N)CCCC3)cc1 [CBK263548] | 109 |
| O=C(NC(Sc1ncccn1)C(=O)c1ccccc1)c1ccccc1 (centres unmarked) [CBK025806] | 95.5 |

| SMILES | viability at 28.5 h, 10 µM [%] |
| --- | --- |
| Cc1ccc(N(C(C)C(=O)Nc2ccccc2C(F)(F)F)S(C)(=O)=O)cc1 (centres unmarked) [CBK268796] | 84.5 |
| CC(=O)Nc1ccc(-c2ccc(COC3CCN(C(=O)c4ccc(Cl)c(Cl)c4)CC3)cc2)cc1 [CBK149215] | 89.3 |
| CCCC(=O)N1CCC(c2nc(Cc3cccs3)no2)C1 (centres unmarked) [CBK283034] | 88 |
| CC(C)(C)c1ccc(S(=O)(=O)N2CCCC[C@H]2CCOC(=O)c2ncccc2C(=O)O)cc1 [CBK200066] | 98.7 |
| CC(C)c1ccc(/C=C/C(=O)NCC2COc3ccccc3O2)cc1 (centres unmarked) [CBK149619] | 120 |
| CC(=O)N1C[C@@H]2C[C@H](C1)c1ccc(NS(=O)(=O)c3cccc(F)c3)c(=O)n1C2 [CBK288710] | 105 |
| Cc1cccc(-c2ncc(NC(=O)COc3ccc4ccccc4c3)nc2-c2ccc(N(C)C)cc2)c1 [CBK037575] | 111 |
| CCOc1ncccc1NC(=O)Cc1cccc(OC)c1 [CBK256406] | 94.8 |
| NC1CCN(C(=O)c2cn(C3CC3)c3cc(Cl)c(F)cc3c2=O)CC1 [CBK168626] | 93.3 |
| CN(C)CCO/N=C(\c1ccccc1)c1ccncc1 [CBK261095G] | 94.2 |
| CCc1ccc(-c2csc(NS(=O)(=O)c3cccc(C(=O)O)c3)n2)cc1 [CBK296726] | 91 |
| CCC1CCCCN1C(=O)c1cncc(Br)c1 (centres unmarked) [CBK076699] | 107 |
| CC(C)NC(=O)[C@@H](C)C1CC[C@@]2(C)CC[C@H](NC(=O)C3CC3)[C@@H](C)[C@@H]2[C@H]1O (some centres unmarked) [CBK289444] | 85 |
| COc1nc2ccccc2nc1CCC(=O)NCc1ccco1 [CBK269866] | 93.4 |
| COc1ccc(CN2CCCN(S(=O)(=O)c3ccc(-c4ccccc4)cc3)CC2)cc1F [CBK063108] | 111 |
| O=S1(=O)Cc2ccccc2C(Oc2cncc(N3CCNCC3)n2)C1 (centres unmarked) [CBK172344T] | 91.2 |
| Cc1cc(C)n(C2CCN(Cc3nc4ccccc4n3C)CC2)n1 [CBK281621] | 84.3 |
| CC(C)N(Cc1nc(-c2ccc(Cl)cc2)no1)C(=O)COc1ccc(Br)cc1Cl [CBK267126] | 111 |
| O=C(C1C2CCCCC21)N1CCC(Oc2cccc(F)c2)CC1 (centres unmarked) [CBK282216] | 106 |
| Cc1ccc2nc(NC(=O)C(C)(C)C)nc(O)c2c1 [CBK021975] | 97.7 |
| Cc1nc(N)sc1-c1nnc(Nc2ccccc2)s1 [CBK267353] | 82.7 |
| CC(C)N(C(=O)c1ccccc1-c1cnc2nncn2c1)C(C)C [CBK306701] | 99.8 |

| SMILES | viability at 28.5 h, 10 µM [%] |
| --- | --- |
| N#Cc1ccc(-c2cnc(N)c(-c3ccccc3Cl)n2)cc1 [CBK113660] | 88.5 |
| CN1CCC(N2CCN(C(=O)c3ccc(-c4cccc(C(F)(F)F)c4)o3)CC2)CC1 [CBK149085] | 91.2 |
| NC(=O)CN1CCC(Cc2ccccc2)CC1 [CBK138319] | 109 |
| O=C(c1cccc(Cn2cccn2)c1)N1CCc2sccc2C1c1ccccc1 (centres unmarked) [CBK285552] | 85.8 |
| COc1ccccc1C(=O)Nc1sc2c(c1C#N)CC(C)(C)NC2(C)C [CBK307233] | 99.9 |
| CN(Cc1ccccc1)C1CCN(Cc2ccccn2)CC1 [CBK264622G] | 107 |
| O=C(O)c1cc(-c2ccc(F)cc2)n[nH]1 [CBK267848] | 96.1 |
| COc1ccc(/C=N/NC(=O)CSc2nnc(C)n2-c2ccccc2)cc1 [CBK262812] | 114 |
| O=C(Nc1ccc(N2CCNCC2)nc1)c1cccnc1 [CBK029439T] | 95.1 |
| CC(C)c1cc(C(=O)N2C[C@H](C)N(Cc3ccco3)C[C@@H]2C)on1 [CBK283053] | 90.9 |
| C[C@H](c1ccccc1)N1C(=O)[C@@H]2CN(C(=O)CC(C)(C)CC(=O)O)CCN2C1=O [CBK289639] | 114 |
| Cc1sc(NC(=O)CN(Cc2cnn(C)c2)C(C)C)c(C#N)c1C [CBK306303] | 93.1 |
| O=C([C@H]1O[C@H](CCN2CCN(c3ccccn3)CC2)CC[C@@H]1O)N1CCCC1 [CBK288730] | 83.3 |
| COc1ccccc1N1CC(C(=O)Nc2ccc(C(=O)O)cc2)CC1=O (centres unmarked) [CBK269606] | 84.9 |
| Cc1ccc(C2(O)CCN(C(=O)CC3CCN(C(=O)CC4CCCCC4)CC3)C2)cc1 (centres unmarked) [CBK286132] | 96.9 |
| CCn1c(C)nc2cc(NC(=O)CC3CCCCO3)ccc21 (centres unmarked) [CBK281859] | 98.2 |
| CCOc1ccc(-c2cc(C(=O)Nc3cccc(C(=O)O)c3)no2)cc1 [CBK299776] | 93.9 |
| COc1ccc(N)cc1OCc1cn2ccccc2n1 [CBK295609] | 57.2 |
| COc1nc(SC)nc2[nH]ccc12 [CBK085861] | 95 |
| O=C1c2ccc(S(=O)(=O)c3ccc4c(c3)C(=O)N(CCO)C4=O)cc2C(=O)N1CCO [CBK023065] | 112 |
| COCCNC(=O)CN(C)c1cnc2ccccc2n1 [CBK305265] | 89.2 |
| CN(CC(=O)O)C(=O)c1ccc(S(=O)(=O)N2CCCCC2)cc1 [CBK265715] | 112 |

same assay, conditions: human, hela cells, % viability, bulk resorufin, single well

| SMILES | viability at 28.5 h, 10 µM [%] |
| --- | --- |
| O=C(O)COc1ccc(/C=C2\C(=O)NC(=O)N(c3ccc(OCc4ccccc4)cc3)C2=O)cc1 [CBK265449] | 83.6 |
